# Experiments:
# plasma active GLP-1 = assay: In vivo plasma active GLP-1 level-increasing action after oral administration; set-up: species or system mice; settings: Experiment 7, 10 mg/kg orally; for Plasma active GLP-1 level (relative value to control group as 100), Average value: male C57/BL6J mice, blood after 30 minutes, 0.5% CMC-Na group = 100; for Significant difference (p < 0.05) vs control group, plasma active GLP-1 level: mice, 30 minutes, Student's t-test
# Method: (§1) In the Test Examples below, data were represented as average value±standard error. In Test Examples 1, 2, and 3, a Student's t-test was used for a statistical test, and in other Test Examples, one-way ANOVA was carried out for dispersion analysis followed by a multiple comparison test by using a Dunnet's test. […] All of these analyses were carried out by using an SPSS for Windows release 17.0 (manufactured by SPSS Inc.).
# Among the cyclic dipeptides, cyclic dipeptides for which an in vitro GLP-1 secretion-accelerating action was found and highly lipid-soluble cyclic dipeptides were used in the following experiment. Seven-week-old male C57/BL6J mice were purchased from CLEA Japan, Inc. for use, and they were subjected to an experiment after 1 week of a habituation period. Each animal was grown in an animal room with an air conditioning system (temperature: 23.5±1.0° C., humidity: 55±10 RH %, air ventilation: 12 to 15 times/hour, illumination: from 7:00 to 19:00/day).
# After the habituation period, the mice were subjected to 5.5 hours of food deprivation and 2 hours of water deprivation. Thereafter, a cyclic dipeptide dissolved or suspended in a 0.5% CMC-Na aqueous solution in 10 mg/kg was orally administered to each mouse forcibly. After 30 minutes, the blood was collected from the abdominal vena cava under anesthesia, and 1 μL of heparin sodium and 1 μL of 10 mM Sitagliptin phosphate were added to each collected blood, which was then subjected to centrifugation at 8000 rpm for 10 minutes to recover the plasma, and the plasma active GLP-1 level was measured by using the ELISA kit. In the analysis, the active GLP-1 level for a group administered with 0.5% CMC-Na aqueous solution was defined as 100, and relative values thereto were used.
# In each Table, cyclic dipeptides for which an in vivo plasma active GLP-1 level-increasing action was found and was not found are listed.
# NCI-H716 cells = assay: In vitro GLP-1 secretion-accelerating action (active GLP-1 ELISA); format: cell-based; settings: for Significant difference (p < 0.05) vs control group, amount of active GLP-1 secreted: 1 hour, Student's t-test; for Amount of active GLP-1 secreted (relative value to control group as 100), Average value: after 1 hour, group with no cyclic dipeptide = 100
# Method: as §1
# Among the cyclic dipeptides, 92 highly water-soluble cyclic dipeptides were used in the following experiment. In each well of a Poly-L-Lysine 96-well plate, NCI-H716 cells suspended in 100 μL of a DMEM (with 10% FBS, 2 mM glutamine, and 1% antibiotics added in advance) were seeded at 0.5×10^5 cells/well, and cultured in a CO2 incubator (manufactured by ESPEC CORP.) for 48 hours. After washing with PBS(+), 100 μL of a PBS(+) solution with each cyclic dipeptide at a final concentration of 10 mM and 10 μM of Sitagliptin phosphate added therein was added to the cells. After 1 hour, the resultant solution was recovered, and the amount of active GLP-1 in the solution was measured by using the ELISA kit. In the analysis, the amount of active GLP-1 for a group with no cyclic dipeptide added was defined as 100, and relative values thereto were used.
# In each Table, cyclic dipeptides for which an in vitro active GLP-1 secretion-accelerating activity was found and was not found are listed.
# [1] = Experiment 3, cyclic dipeptide 10 mM with 10 μM Sitagliptin phosphate
# [2] = Experiment 4, cyclic dipeptide 10 mM with 10 μM Sitagliptin phosphate
Compound,"Significant difference (p < 0.05) vs control group, amount of active GLP-1 secreted (NCI-H716 cells; Experiment 3, 10 mM)","Amount of active GLP-1 secreted (relative value to control group as 100), Average value (NCI-H716 cells; [1])",also measured
CC(C)C1NC(=O)C(Cc2ccc(O)cc2)NC1=O (stereo not drawn) [compound 88],,,"Plasma active GLP-1 level (relative value to control group as 100), Average value (plasma active GLP-1): 385; Significant difference (p < 0.05) vs control group, plasma active GLP-1 level (plasma active GLP-1): Yes"
CC(O)C1NC(=O)C(Cc2ccc(O)cc2)NC1=O (stereo not drawn) [compound 90],,,"Plasma active GLP-1 level (relative value to control group as 100), Average value (plasma active GLP-1): 466; Significant difference (p < 0.05) vs control group, plasma active GLP-1 level (plasma active GLP-1): Yes"
CC1NC(=O)C(CC(N)=O)NC1=O (stereo not drawn) [compound 124],No,116,
NC(=O)CCC1NC(=O)CNC1=O (stereo not drawn) [compound 126],Yes,210,
NC(=O)CC1NC(=O)C(CCC(=O)O)NC1=O (stereo not drawn) [compound 129],No,118,
NC(=O)CCC1NC(=O)C(CCC(=O)O)NC1=O (stereo not drawn) [compound 130],No,120,
NC(=O)CCC1NC(=O)C(CO)NC1=O (stereo not drawn) [compound 136],No,251,
CC1NC(=O)C(CC(=O)O)NC1=O (stereo not drawn) [compound 153],No,94,
O=C1CNC(=O)C(CO)N1 (stereo not drawn) [compound 154],No,116,
N=C(N)NCCCC1NC(=O)C(CO)NC1=O (stereo not drawn) [compound 159],Yes,135,
CC(O)C1NC(=O)C(CC(=O)O)NC1=O (stereo not drawn) [compound 165],No,140,
CC(O)C1NC(=O)C(CC(N)=O)NC1=O (stereo not drawn) [compound 166],No,149,
CC(O)C1NC(=O)C(CCC(N)=O)NC1=O (stereo not drawn) [compound 167],No,156,
CC(O)C1NC(=O)C(CCCNC(=N)N)NC1=O (stereo not drawn) [compound 168],No,142,
NC(=O)CC1NC(=O)C(CC(=O)O)NC1=O (stereo not drawn) [compound 170],No,125,
CSCCC1NC(=O)C(CCC(N)=O)NC1=O (stereo not drawn) [compound 186],,,"Significant difference (p < 0.05) vs control group, amount of active GLP-1 secreted (NCI-H716 cells; Experiment 4, 10 mM): Yes; Amount of active GLP-1 secreted (relative value to control group as 100), Average value (NCI-H716 cells; [2]): 191"
N=C(N)NCCCC1NC(=O)C(Cc2c[nH]c3ccccc23)NC1=O (stereo not drawn) [compound 189],,,"Significant difference (p < 0.05) vs control group, amount of active GLP-1 secreted (NCI-H716 cells; Experiment 4, 10 mM): Yes; Amount of active GLP-1 secreted (relative value to control group as 100), Average value (NCI-H716 cells; [2]): 314"
O=C(O)CCC1NC(=O)C(CO)NC1=O (stereo not drawn) [compound 192],,,"Amount of active GLP-1 secreted (relative value to control group as 100), Average value (NCI-H716 cells; [2]): 993"
N=C(N)NCCCC1NC(=O)C(CC(N)=O)NC1=O (stereo not drawn) [compound 197],,,"Significant difference (p < 0.05) vs control group, amount of active GLP-1 secreted (NCI-H716 cells; Experiment 4, 10 mM): Yes; Amount of active GLP-1 secreted (relative value to control group as 100), Average value (NCI-H716 cells; [2]): 359"
N=C(N)NCCCC1NC(=O)C(CCCNC(=N)N)NC1=O (stereo not drawn) [compound 212],,,"Significant difference (p < 0.05) vs control group, amount of active GLP-1 secreted (NCI-H716 cells; Experiment 4, 10 mM): Yes; Amount of active GLP-1 secreted (relative value to control group as 100), Average value (NCI-H716 cells; [2]): 1050"
